Source: patent publication US10858335B2 (Rigel Pharmaceuticals, Inc., priority 2014, dated 2020)

The molecules below were run on GDF8 signaling (p-SMAD-3 (Ser423/425)) (assay: AlphaScreen SureFire SMAD3 (p-Ser423/425) assay, GDF8-stimulated cells (GDF pSMAD)). Conditions: Mus musculus, MPC-11, GDF8-stimulated pSMAD3, MPC11; tested as the salt form given; read-out: GDF pSMAD (MPC11) (μM), inhibition of GDF8 signaling.
Assay type: cell-based
From the text: Biological Example 1: AlphaScreen® SureFire® SMAD3 (p-Ser423/425) Assay
The p-SMAD-3 (Ser423/425) SureFire® assay has been designed to measure the phosphorylation of endogenous cellular p-SMAD-3 (Ser423/425) in cell lysates and is a system for the screening of both modulators of receptor activation (e.g. agonists and antagonists) as well as agents acting intracellularly, such as small molecule inhibitors of upstream events. The assay will measure p-SMAD-3 (Ser423/425) activation by either cloned or endogenous receptors, and can be applied to primary cells.
P-SMAD-3 (Ser423/425) SureFire® Assay Protocols
Step A: Preparation of Buffers
1× Lysis buffer: 1 ml of 5× Lysis buffer was diluted with 4 ml of sterile water. After dilution, excess 1× Lysis buffer can be frozen and thawed up to 5 times without loss in activity.
Activation buffer: The buffer was warmed slowly to 37° C. and gently mixed to re-suspend. Activation buffer can be stored at room temperature with no loss in activity.
Reaction buffer: The buffer was kept at 4° C. while in use.
AlphaScreen® Protein A IgG Kit: The kit was stored at 4° C. in the dark.
Reaction buffer+Activation buffer+AlphaScreen® Acceptor beads: Reaction buffer (40 parts), Activation Buffer (10 parts) and Acceptor beads (1 part) were mixed and the mixture was stored at room temperature and used the same day. Mixture was added to 384-well plates; excess mixture was discarded.
Dilution buffer+AlphaScreen® Donor beads: Dilution buffer (20 parts) and Donor beads (1 part) were mixed and the mixture was stored at room temperature and used the same day. Excess mixture was discarded.
Assay control samples: After reconstitution in 250 μl of water, lysates were at −20° C. in single use aliquots.
Step B: Preparation of Samples and Cells
96-well Assay Protocol for 293FT and RMS13 adherent cells can be carried out manually or in high throughput with liquid handling robots.
The cells (80 μL of cells for 96 well plates) were plated in collagen coated tissue culture plates in RPMI or FreeStyle medium (Invitrogen) and incubated overnight. For manual analysis, 6 plates for GDF8, 6 plates for TGFβ, and optionally 6 plates for AlkSca(ALK5 constitutively active) were used.
The compound dilution plates were prepared as follows: 12 μL of DMSO was transferred into first column of 96-well plate, and 16 μL of DMSO was transferred into columns 2-12 of the 96-well plate. 12 μL of compound solution was transferred into first column of the DMSO-containing 96-well plate. Three-fold dilution was performed up to column 10 of the DMSO-containing 96-well plate.
Step C: Treatment and Analysis
The plate containing cells were treated with compounds for about 10 minutes, and then ligand was added. GDF8 or TGFb was added to plates to stimulate. 293FL cells were stimulated for 90 minutes at 37° C.; and RMS13 cells were stimulated for 60 minutes at 37° C. The medium was then removed from the cells, and 1× Lysis Buffer (about 25 μL) was added and the plate was gently agitated on plate shaker for 5-10 minutes.
The lysate (5 μL) was then placed into 384-well shallow plates avoiding the generation of bubbles. To this, the Reaction Buffer+Activation Buffer+AlphaScreen® Acceptor beads mixture (5 μL) was added. The plate was sealed with adhesive cover and shielded from light (e.g., with metal foil), and agitated gently on plate shaker for 2 hours at room temperature.
Dilution buffer+AlphaScreen® Donor beads (2 μL) was then added, and the plate was intubated on the plate shaker for an additional 1½ hours. After completion, the plate was read on Synergy-4 or Enspire plate reader, using AlphaScreen® pSMAD3® settings.
Representative results for inhibition of GDF8 signaling are shown in Table 2(data=GDF pSMAD (MPC11) (μM)): […]

IC50	Structure (SMILES)
3.33 µM	COc1ccc(Cl)c(-c2ncccc2-c2ccc3ncnc(N)c3c2)c1 [compound 1011, 6-(2-(2-chloro-5-methoxyphenyl)pyridin-3-yl)quinazolin-4-amine]
0.416 µM	Nc1ncnc2ccc(-c3cccnc3-c3cc(OC(F)(F)F)ccc3F)cc12 [compound 1014, 6-(2-(2-fluoro-5-(trifluoromethoxy)phenyl)pyridin-3-yl)quinazolin-4-amine]

Same assay, conditions: Mus musculus, MPC-11, MPC11; GDF8-stimulated; p-SMAD3 AlphaScreen; read-out: GDF pSMAD (MPC11) (inhibition of GDF8 signaling)

Structure (SMILES)	IC50
N#Cc1cnc2ccc(-c3cccnc3-c3cccc(C(F)(F)F)c3)cn12 [compound 560, 6-(2-(3-(Trifluoromethyl)phenyl)pyridin-3-yl)imidazo[1,2-a]pyridine-3-carbonitrile]	2.48 µM
Cc1cccc(-c2ncccc2-c2ccc3ncn(CCCN4CCN(C)CC4)c3c2)c1 [compound 251, 1-(3-(4-Methylpiperazin-1-yl)propyl)-6-(2-m-tolylpyridin-3-yl)-1H-benzo[d]imidazole]	17.8 µM
Cc1cc(-c2ncc(NCc3ccncc3)cc2-c2ccc3nccnc3c2)ccc1F [compound 245, 6-(4-Fluoro-3-methylphenyl)-N-(pyridin-4-ylmethyl)-5-(quinoxalin-6-yl)pyridin-3-amine]	1.26 µM
Cc1cc(-c2ncccc2-c2ccc3ncnc(NCc4cccnc4)c3c2)ccc1F [compound 416, 6-(2-(4-Fluoro-3-methylphenyl)pyridin-3-yl)-N-(pyridin-3-ylmethyl)quinazolin-4-amine]	4.86 µM
Cc1ccc(F)c(-c2ncccc2-c2ccc3ncc(C(=O)NCCCN4CCCC4=O)n3c2)c1 [compound 725, 6-(2-(2-Fluoro-5-methylphenyl)pyridin-3-yl)-N-(3-(2-oxopyrrolidin-1-yl)propyl)imidazo[1,2-a]pyridine-3-carboxamide]	0.465 µM
Cc1cc(-c2ncccc2-c2ccn3c(C(=O)NCCCN(C)C)ncc3c2)ccc1F [compound 267, N-(3-(Dimethylamino)propyl)-7-(2-(4-fluoro-3-methylphenyl)pyridin-3-yl)imidazo[1,5-a]pyridine-3-carboxamide]	6.76 µM
Cc1cccc(-c2ncccc2-c2ccc3ncc(N4CCCC4)n3c2)c1 [compound 562, 3-(Pyrrolidin-1-yl)-6-(2-(m-tolyl)pyridin-3-yl)imidazo[1,2-a]pyridine]	9.78 µM
Cc1cc(-c2ncccc2-c2ccc3ncc(C(=O)O)n3c2)ccc1F [compound 579, 6-(2-(4-Fluoro-3-methylphenyl)pyridin-3-yl)imidazo[1,2-a]pyridine-3-carboxylic acid]	12.4 µM
O=C(NCCCN1CCCC1=O)c1cnc2ccc(-c3cccnc3-c3cc(Cl)ccc3F)cn12 [compound 729, 6-(2-(5-Chloro-2-fluorophenyl)pyridin-3-yl)-N-(3-(2-oxopyrrolidin-1-yl)propyl)imidazo[1,2-a]pyridine-3-carboxamide]	0.286 µM
Cc1cc(-c2ncc(NCc3ccc(O)c(O)c3)cc2-c2ccc3ncsc3c2)ccc1F [compound 368, 4-(((5-(Benzo[d]thiazol-6-yl)-6-(4-fluoro-3-methylphenyl)pyridin-3-yl)amino)methyl)benzene-1,2-diol]	0.189 µM
Cc1cc(-c2ncccc2-c2ccn3c(C(=O)NCCN(C)C)ncc3c2)ccc1F [compound 268, N-(2-(Dimethylamino)ethyl)-7-(2-(4-fluoro-3-methylphenyl)pyridin-3-yl)imidazo[1,5-a]pyridine-3-carboxamide]	14.4 µM
Nc1noc2cc(-c3cccnc3-c3ccc(F)c(Cl)c3)ccc12 [compound 797, 6-(2-(3-Chloro-4-fluorophenyl)pyridin-3-yl)benzo[d]isoxazol-3-amine]	3.81 µM
Cc1cc(-c2ncccc2-c2ccn3ncc(C(=O)NCCC45CCCN4CCC5)c3c2)ccc1F [compound 805, 5-(2-(4-Fluoro-3-methylphenyl)pyridin-3-yl)-N-(2-(tetrahydro-1H-pyrrolizin-7a(5H)-yl)ethyl)pyrazolo[1,5-a]pyridine-3-carboxamide]	0.953 µM
[2H]C([2H])([2H])c1cccc(-c2ncccc2-c2ccc3ncc(C#N)n3c2)c1 [compound 601, 6-(2-(3-(Methyl-d3)phenyl)pyridin-3-yl)imidazo[1,2-a]pyridine-3-carbonitrile]	0.141 µM
Fc1ccc(-c2ncccc2-c2ccc3nccnc3n2)cc1Cl [compound 740, 6-(2-(3-Chloro-4-fluorophenyl)pyridin-3-yl)pyrido[2,3-b]pyrazine]	9.5 µM
CS(=O)(=O)Nc1cccc(-c2ncccc2-c2ccc3[nH]ncc3c2)c1 [Compound 76, 5-(2-(3-Methylsulfphonylaminophenyl)pyridin-3-yl)-1H-indazole]	1.81 µM
Nc1noc2ccc(-c3cccnc3-c3ccc(F)c(Cl)c3)cc12 [compound 796, 5-(2-(3-Chloro-4-fluorophenyl)pyridin-3-yl)benzo[d]isoxazol-3-amine]	14 µM
Cc1cc(-c2ncccc2-c2cnc3cn[nH]c3c2)ccc1F [Compound 138, 6-(2-(4-Fluoro-3-methylphenyl)pyridin-3-yl)-1H-pyrazolo[4,3-b]pyridine]	4.33 µM
Cc1ccc(F)c(-c2ncccc2-c2ccc3[nH]ncc3c2)c1 [Compound 73, 5-(2-(2-Fluoro-5-methylphenyl)pyridin-3-yl)-1H-indazole]	0.497 µM
CC(=O)c1cnc2ccc(-c3cccnc3-c3cccc(C)c3)cn12 [compound 587, 1-(6-(2-(m-Tolyl)pyridin-3-yl)imidazo[1,2-a]pyridin-3-yl)ethan-1-one]	0.366 µM

Other lines, results leading:

IC50	Structure (SMILES)
1.75 µM	Nc1ccc(-c2ccc3ncsc3c2)c(-c2cccc(C3CC3)c2)n1 [Compound 28, 5-(Benzo[d]thiazol-6-yl)-6-(3-cyclopropylphenyl)pyridin-2-amine]
0.127 µM	Cc1cccc(-c2ncccc2-c2ccn3nccc3c2)c1 [compound 757, 5-(2-(m-Tolyl)pyridin-3-yl)pyrazolo[1,5-a]pyridine]
1.5 µM	Fc1cccc(-c2ncccc2-c2ccc3ncsc3c2)c1 [compound 658, 6-(2-(3-Fluorophenyl)pyridin-3-yl)benzo[d]thiazole]
7.94 µM	[2H]C([2H])([2H])c1cccc(-c2ncccc2-c2ccc3nccnc3c2)c1 [compound 605, 6-(2-(3-(Methyl-d3)phenyl)pyridin-3-yl)quinoxaline]
0.342 µM	Cc1cccc(-c2ncccc2-c2ccc3ncc(CO)n3c2)c1 [compound 566, (6-(2-(m-Tolyl)pyridin-3-yl)imidazo[1,2-a]pyridin-3-yl)methanol]
0.764 µM	Cc1cc(-c2ncc(NCc3cccc4cccnc34)cc2-c2ccc3ncsc3c2)ccc1F [compound 336, 5-(Benzo[d]thiazol-6-yl)-6-(4-fluoro-3-methylphenyl)-N-(quinolin-8-ylmethyl)pyridin-3-amine]
0.415 µM	N#Cc1cnc2ccc(-c3cccnc3-c3cccc(Cl)c3)cn12 [compound 697, 6-(2-(3-Chlorophenyl)pyridin-3-yl)imidazo[1,2-a]pyridine-3-carbonitrile]
0.231 µM	Clc1cccc(-c2ncccc2-c2ccc3nc[nH]c3c2)c1 [compound 783]
1.72 µM	FC(F)(F)c1cccc(-c2ncccc2-c2ccc3nccnc3c2)c1 [compound 542, 6-(2-(3-(Trifluoromethyl)phenyl)pyridin-3-yl)quinoxaline]
5.44 µM	N#Cc1cccc(-c2ncccc2-c2ccc3nccn3c2)c1 [Compound 51, 3-(3-(Imidazo[1,2-a]pyridin-6-yl)pyridin-2-yl)benzonitrile]
8.38 µM	Cc1cc(-c2ncccc2-c2ccc3ncn(C(C)C)c3c2)ccc1F [Compound 48, 6-(2-(4-Fluoro-3-methylphenyl)pyridin-3-yl)-1-isopropyl-1H-benzo[d]imidazole]
